The text below walks through data of ChEMBL document CHEMBL1201862, “PubChem BioAssay data set” (2004).

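Five compound concentrations were applied to cells in 96-well plates for 48 hours; endpoints were derived by simple linear interpolation of the resulting dose-response curve. Here, GI50 denotes the concentration required for 50% inhibition of growth.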 The source made the active and inactive calls. Cut-off read from the data, not from the text of the source: active = GI50 up to about 1.1 µM and inactive = higher.

What all share (test): inhibition of tumour cell growth, NCI panel, 48 h
For assay [1], the system named is SNB-78.
Assay [2] relates to DLD-1.
Assay [3] deals with XF498.
The subject of assay [4] is HOP-18.
Assay [5] relates to DMS-114.
In assay [6] the test system is M19-MEL.
For assay [7], the system named is RXF 631.
The test system of assay [8] is LXFL 529.
For assay [9], the system named is DMS-273.

Take `CC(=O)c1c(O)c2c([nH]c1=O)CCCC2`: the GI50 in [1] is > 100 µM (inactive); in [2], 21.6 µM (inactive); in assay [3] it was 64.6 µM (inactive); in [4], > 100 µM (inactive); in assay [5], 25.4 µM (inactive); in assay [6] it was 21 µM (inactive). Moreover, the GI50 in [7] was 21.8 µM (inactive); in assay [8] it was > 100 µM (inactive); in [9], 25.6 µM (inactive).
For `CN(C)CCC(/C=C/c1ccccc1)=N\Nc1ccc(Cl)c(Cl)c1`, the GI50 in assay [1] is 3.58 µM (inactive); in [2], 3.49 µM (inactive); in [3] it was 2.3 µM (inactive); in [4], 2.67 µM (inactive); in [6] it was 4.31 µM (inactive); in [7] it was 2.37 µM (inactive). Besides, the GI50 in assay [8] is 2 µM (inactive); in assay [9], 2.36 µM (inactive).
Turning to `O=C(/C=C/c1ccc(Cl)cc1)c1ccncc1`, the GI50 in assay [1] was > 100 µM (inactive); in assay [2], 41 µM (inactive); in assay [4] it was > 100 µM (inactive); in assay [5], 48.1 µM (inactive); in [6], 26.9 µM (inactive); in assay [7], 31.8 µM (inactive). Besides, the GI50 in [8] was 60.5 µM (inactive); in [9] it was 69.3 µM (inactive).
With `Brc1ccccc1/C=N\C12CC3CC(CC(C3)C1)C2`, the GI50 in assay [1] is > 91.4 µM (inactive); in assay [2] it was 1.41 µM (inactive); in assay [3], > 100 µM (inactive); in assay [4], > 100 µM (inactive); in assay [5], 5.77 µM (inactive); in assay [6], > 76.6 µM (inactive). Further, the GI50 is > 79.4 µM (inactive) in assay [7], 10.3 µM (inactive) in assay [8] and 11.3 µM (inactive) in assay [9].
On to `NC(=O)c1csc(C2C=CC(CO)O2)n1` (centres undefined), for which the GI50 in [1], in [3], in assay [4], in assay [5], in assay [7] and in assay [8] was > 100 µM (inactive) throughout. For the same compound, in assay [9], the GI50 was > 100 µM (inactive).
With `Nc1nc2c(c(=O)[n-]1)[n+](CCO)cn2C1OC(CO)C(O)C1O` (centres undefined), the GI50 in [1], in assay [2], in assay [3], in assay [4], in [5] and in assay [6] was > 100 µM (inactive) each time. Further, the GI50 in [7], in assay [8] and in assay [9] was > 100 µM (inactive) throughout.
On to `C=C(C(=C)P(=S)(C(C)C)C(C)C)P(=S)(C(C)C)C(C)C`, for which the GI50 in assay [1], in [2], in [3], in [5], in assay [6] and in [7] was > 100 µM (inactive) each time. For the same compound, the GI50 in assay [8] and in assay [9] was > 100 µM (inactive) each time.
In the case of `COc1cc2c(cc1OC)C1Cc3cc(OC)c(OC)cc3N1CC2` (centres undefined), the GI50 in assay [1] was 39.8 µM (inactive); in assay [2] it was 39.8 µM (inactive); in assay [3], 18.5 µM (inactive); in [5], 15.1 µM (inactive); in assay [6] it was 13.3 µM (inactive); in assay [8] it was 19.3 µM (inactive).
Turning to `N/N=C(\CCN1CCCC1)CC(c1ccccc1)c1c(O)c2ccccc2oc1=O` (centres undefined), the GI50 in assay [1], in [2], in assay [4], in assay [5], in assay [6] and in [8] was > 100 µM (inactive) throughout. Besides, the GI50 in [9] was > 100 µM (inactive).
On to `O=C(O)c1c2c(cc3c(=O)c4ccccc4[nH]c13)CCCC2`, for which the GI50 in assay [1], in assay [3], in assay [4], in assay [6], in assay [7] and in assay [8] was > 100 µM (inactive) each time. Besides, the GI50 in [9] was 83 µM (inactive).
In the case of `CC(C)c1ccccc1NC(=O)CCc1n[nH]c(=S)o1`, the GI50 was > 100 µM (inactive) in assay [1]; > 54.5 µM (inactive) in assay [2]; > 100 µM (inactive) in assay [3]; > 100 µM (inactive) in assay [4]; > 67 µM (inactive) in assay [5]; > 100 µM (inactive) in [6]. For the same compound, the GI50 is > 100 µM (inactive) in [7], > 79.8 µM (inactive) in assay [8] and > 54.3 µM (inactive) in [9].
For the compound `O=[N+]([O-])c1cccc(/C=N/C23CC4CC(CC(C4)C2)C3)c1`, the GI50 in assay [1], in assay [2], in assay [3], in [4], in assay [5] and in [6] was > 100 µM (inactive) each time. For the same compound, the GI50 in assay [8] and in assay [9] was > 100 µM (inactive) each time.
For the compound `Cc1nc2ccccc2[s+]c1-c1cnc(NC#N)nc1C(=O)Nc1cccc(Cl)c1`, the GI50 in [1], in assay [2], in assay [4], in assay [5], in assay [6] and in assay [8] was > 100 µM (inactive) in each case. For the same compound, the GI50 in [9] is > 100 µM (inactive).
Regarding `COC(=O)C1=C(O)c2cc(-c3ccccc3)c(-c3ccccc3)c(C#N)c2NC(=O)C1`, the GI50 in [1] was 14 µM (inactive); in assay [2], 6.3 µM (inactive); in [3], 49 µM (inactive); in assay [4], < 0.01 µM (active); in [5] it was 29.6 µM (inactive); in [6], 14.5 µM (inactive). In addition, the figures for the GI50 in assay [7], in assay [8] and in assay [9] were 3.56 µM (inactive), 1.3 µM (inactive) and 2.13 µM (inactive), respectively.
For the compound `O=S(=O)(N/N=C/c1ccc(Cl)cc1Cl)c1ccccc1`, the GI50 is > 100 µM (inactive) in assay [1]; > 100 µM (inactive) in assay [2]; 78.7 µM (inactive) in assay [3]; 57.5 µM (inactive) in assay [4]; 29.4 µM (inactive) in [5]; > 100 µM (inactive) in assay [6]. For the same compound, the GI50 in [7] is 61.1 µM (inactive); in [8], 74.3 µM (inactive); in assay [9], 66.7 µM (inactive).
In the case of `Cc1ccc(S(=O)(=O)OC2CS[S+]([O-])CC2OS(=O)(=O)c2ccc(C)cc2)cc1` (centres undefined), the GI50 in assay [1] is 17 µM (inactive); in [2], 9.27 µM (inactive); in assay [3], 13.6 µM (inactive); in assay [4], 22.6 µM (inactive); in [5], 17.9 µM (inactive); in assay [6], 16.6 µM (inactive). The GI50 in [7] was 16.6 µM (inactive); in assay [8], 14.5 µM (inactive); in [9] it was 18.9 µM (inactive).
Take `N#CC(C(=O)C(=O)C(C#N)c1ccc(Br)cc1)c1ccc(Br)cc1` (centres undefined): the GI50 in assay [1] was 12.2 µM (inactive); in assay [2], 14.3 µM (inactive); in assay [4], 11.4 µM (inactive); in assay [5] it was 12.1 µM (inactive); in assay [6], 12.1 µM (inactive); in assay [9], 12.1 µM (inactive).
With `Fc1ccc(C2SCc3nc4ccccc4n32)cc1Cl` (centres undefined), the GI50 in assay [1] is 48.8 µM (inactive); in assay [2], 23 µM (inactive); in assay [3], 14 µM (inactive); in assay [5] it was 19.9 µM (inactive); in assay [6], 19.8 µM (inactive); in assay [7], 32.9 µM (inactive). Besides, the values for the GI50 in assay [8] and in assay [9] were 18.6 µM (inactive) and > 10 µM (inactive), respectively.
As for `C/C(CC(=O)Nc1ccccc1)=N\NC(N)=S`, the GI50 in [1], in assay [2], in assay [3], in assay [5], in assay [6] and in assay [8] was > 100 µM (inactive) in each case. Moreover, the GI50 in assay [9] was > 100 µM (inactive).
`O=C(N/C(=C\c1ccc(/C=C(\NC(=O)c2ccccc2)c2nc3ccccc3[nH]2)cc1)c1nc2ccccc2[nH]1)c1ccccc1`: the GI50 in [1], in assay [2], in assay [3], in [4], in assay [5] and in [6] was > 100 µM (inactive) in each case. Moreover, the results for the GI50 in assay [8] and in [9] were > 100 µM (inactive) and 52.8 µM (inactive), respectively.
With `CSC(C1c2ccccc2N(c2ccc(C)cc2)C2=NC(=O)N(C)C(=O)C21Cl)S(=O)(=O)c1ccc(C)cc1` (centres undefined), the GI50 in [1] is 27.9 µM (inactive); in assay [2] it was 16.3 µM (inactive); in [3], 30.8 µM (inactive); in [5], 19 µM (inactive); in [6], 23.7 µM (inactive); in assay [8], 17.5 µM (inactive). In addition, the GI50 in assay [9] was 20 µM (inactive).
Turning to `COC1CC(n2cc(F)c(N)nc2=O)OC1CO` (centres undefined), the GI50 in [1] is > 100 µM (inactive); in assay [2], > 100 µM (inactive); in assay [3] it was > 100 µM (inactive); in assay [4], 49.4 µM (inactive); in assay [5], > 100 µM (inactive); in [7] it was > 100 µM (inactive). For the same compound, the GI50 in assay [8] and in assay [9] was > 100 µM (inactive) in each case.
With `CS(=O)(=O)CS(=O)(=O)OCCCl`, the GI50 in assay [1] is 96.8 µM (inactive); in assay [2] it was 333 µM (inactive); in assay [4], 438 µM (inactive); in assay [5] it was 86.7 µM (inactive); in assay [6], 286 µM (inactive); in assay [9], 236 µM (inactive).
